Laboratory results as given in PMC10387993, “New pyrimidine-N-β-D-glucosides: synthesis, biological evaluation, and molecular docking investigations” (Turkish Journal of Chemistry, 2023).
≈ marks a conversion by molar mass, not a printed value. Where two headings read alike, the source gives them in different places.

Key:
[1] = LDH cytotoxic activity assay, FL; format: cell-based; settings: human, FL cells (normal cells)
Description: (§1) The cell lines were cultured in a cell medium (Dulbecco’s modified eagle’s or RPMI 1640) enriched with 10% (v/v) fetal bovine serum and 2% (v/v) Penicillin-Streptomycin (10,000 U/mL). First, old medium was removed out of the flask when the cells reached approximately 80% confluence. Next, cells were taken from the flasks surface using trypsin-EDTA solution and then subjected to centrifugation. Following, the cell pellet was suspended with fresh media and was inoculated into wells.
(§2) Approximately 5 × 10^3 cells in 100 μL were placed into 96-well plates as triplicates and treated with 25, 50, 75, and 100 μg/mL concentrations of test compounds at 37 °C with 5% CO2 for 24 h. LDH activity was obtained by determining absorbance at 492–630 nm using a microplate reader.

[2] = LDH cytotoxic activity assay, Hep3B; format: cell-based; settings: human, Hep3B cells
Description: as §1, §2

E. faecalis ATCC 29212 = assay: Microdilution MIC assay; format: cell-based; settings: Enterococcus faecalis, ATCC29212, 24 h, E. faecalis ATCC 29212, 24 h at 35 °C; read-out: MIC
Method in brief: (§3)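 Compounds were serially diluted in microwells and inoculated with each strain. After 24 h incubation at 35 °C, growth was scored visually. The MIC was the lowest concentration showing no turbidity.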

[3] = test system: S. aureus MSSA ATCC 29213; assay: Microdilution MIC assay; format: cell-based; settings: S. aureus MSSA ATCC 29213, 24 h at 35 °C
Method in brief: as §3

[4] = test system: P. aeruginosa AGME ATCC 27853; assay: Microdilution MIC assay; format: cell-based; settings: Pseudomonas aeruginosa, ATCC27853; P. aeruginosa AGME ATCC 27853, 24 h at 35 °C
Method in brief: as §3

S. mutans ATCC 35668 = assay: Microdilution MIC assay; format: cell-based; settings: S. mutans ATCC 35668, 24 h at 35 °C
Method in brief: as §3

[5] = test system: A. actinomycetemcomitans ATCC 33384; assay: Microdilution MIC assay; format: cell-based; settings: Aggregatibacter actinomycetemcomitans, ATCC33384; A. actinomycetemcomitans ATCC 33384, 24 h at 35 °C
Method in brief: as §3

[6] = LDH cytotoxic activity assay, A549; format: cell-based; settings: human, A549 cells; for cytotoxicity at 24 h, 25 μg/mL: A549, 25 μg/mL; for cytotoxicity at 24 h, 50 μg/mL: A549, 50 μg/mL; for cytotoxicity at 24 h, 75 μg/mL: A549, 75 μg/mL; for cytotoxicity at 24 h, 100 μg/mL: A549, 100 μg/mL
Description: as §1, §2

BSA = BSA (Bos taurus, UniProt P02769); assay: BSA binding study, UV-Visible absorption; settings: UV-Vis, 25 μM compound, BSA 6.5–800 μM
Source text: The vast majority of anticancer agents used in pharmaceutical chemistry act on functional macromolecules such as DNA and proteins. Given this well-known fact, the relationship between newly developed anticancer drug candidates and macromolecules should be studied in detail. The interaction of molecules with DNA leads to significant changes in the helical structure of DNA, which can be observed by spectrophotometric techniques. […] Also, the red or blue shift in the absorption bands of the compounds can be an indication of the stability of the compound and the DNA structure. The DNA/BSA binding properties of the new chemicals synthesized by our group were determined using a UV-Vis spectrophotometer. The interactions of these compounds with DNA were as follows. In the spectra obtained by UV-Vis studies of the compounds, a single maximum absorption peak was observed and this peak had no clear bathochromic or hypsochromic effect. […]. […] The physical interactions of our newly synthesized compounds with BSA caused the formation of the spectral bands described below. […]. […]. Kb is the binding constant related to the complex to DNA and can be calculated algebraically from the slope of the line drawn between [DNA] / (ɛa-ɛf) and [DNA]. […].
To find the interaction of the compounds with calf thymus DNA and to calculate the binding constants (Kb) UV–Visible absorption spectroscopy technique was used. A 2.5-mg calf thymus DNA was dissolved in 10.0 mL Tris–HCl buffer (20 mM Tris–HCl, 20 mM NaCl, pH 7.0) and stabile during one week in the refrigerator. […]. After dissolving the calf thymus DNA fibers in Tris–HCl buffer, the purity of this solution was checked from the absorbance ratio A260/A280. […]. These compounds were diluted with Tris–HCl buffer to obtain 25 μM concentrations. Test compounds in the solutions were incubated at room temperature for nearly 30 min before the process. The UV-visible spectral studies were performed in mixed solvent system (1/9 DMSO/Tris–HCl buffer) using eight points that the fine structure is observed for these compounds in this system by UV-visible absorption. […]. Absorption spectra were recorded by using 1-cm-path quartz cuvettes at room temperature. To evaluate the interaction of the compounds with BSA, UV–Visible absorption spectroscopy technique was also used. A 2.5 mg BSA was dissolved in 10.0 mL of Tris–HCl buffer (5 mM Tris–HCl, 10 mM NaCl at pH 7.4) and stored in the refrigerator. […]

[7] = LDH cytotoxic activity assay, MCF7; format: cell-based; settings: human, MCF7 cells; for cytotoxicity at 24 h, 25 μg/mL: MCF7, 25 μg/mL; for cytotoxicity at 24 h, 50 μg/mL: MCF7, 50 μg/mL; for cytotoxicity at 24 h, 75 μg/mL: MCF7, 75 μg/mL
Description: as §1, §2

calf thymus DNA (CT-DNA) = assay: DNA binding study, UV-Visible absorption titration; settings: UV-Vis titration, 25 μM compound
Source text: The vast majority of anticancer agents used in pharmaceutical chemistry act on functional macromolecules such as DNA and proteins. Given this well-known fact, the relationship between newly developed anticancer drug candidates and macromolecules should be studied in detail. The interaction of molecules with DNA leads to significant changes in the helical structure of DNA, which can be observed by spectrophotometric techniques. […] Also, the red or blue shift in the absorption bands of the compounds can be an indication of the stability of the compound and the DNA structure. The DNA/BSA binding properties of the new chemicals synthesized by our group were determined using a UV-Vis spectrophotometer. The interactions of these compounds with DNA were as follows. […] Kb is the binding constant related to the complex to DNA and can be calculated algebraically from the slope of the line drawn between [DNA] / (ɛa-ɛf) and [DNA]. […]
To find the interaction of the compounds with calf thymus DNA and to calculate the binding constants (Kb) UV–Visible absorption spectroscopy technique was used. […] After dissolving the calf thymus DNA fibers in Tris–HCl buffer, the purity of this solution was checked from the absorbance ratio A260/A280. […] Absorption spectra were recorded by using 1-cm-path quartz cuvettes at room temperature. […]

[8] = as the column head prints, head prints FL
[9] = Staphylococcus aureus, 24 h, read-out: MIC
[10] = Streptococcus mutans, ATCC35668, 24 h, read-out: MIC

Chain of BSA (P02769 25-607): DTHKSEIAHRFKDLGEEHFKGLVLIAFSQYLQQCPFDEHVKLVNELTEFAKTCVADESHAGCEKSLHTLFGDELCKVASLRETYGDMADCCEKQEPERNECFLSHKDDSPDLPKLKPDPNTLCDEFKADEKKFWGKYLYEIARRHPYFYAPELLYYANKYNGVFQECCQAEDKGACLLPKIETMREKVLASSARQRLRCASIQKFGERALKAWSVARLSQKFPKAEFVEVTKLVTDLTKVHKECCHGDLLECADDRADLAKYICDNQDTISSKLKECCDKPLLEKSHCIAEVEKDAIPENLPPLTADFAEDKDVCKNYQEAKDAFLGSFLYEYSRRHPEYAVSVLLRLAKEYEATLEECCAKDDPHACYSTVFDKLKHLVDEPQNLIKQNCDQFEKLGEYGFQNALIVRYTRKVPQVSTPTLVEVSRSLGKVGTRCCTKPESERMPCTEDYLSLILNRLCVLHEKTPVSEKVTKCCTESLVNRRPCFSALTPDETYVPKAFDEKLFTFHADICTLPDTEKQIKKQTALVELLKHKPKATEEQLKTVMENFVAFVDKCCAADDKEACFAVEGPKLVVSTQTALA

SMILES	MIC (E. faecalis ATCC 29212) [µg/mL]	MIC [3, 9] [µg/mL]	MIC [4] [µg/mL]	MIC (S. mutans ATCC 35668; [10]) [µg/mL]	MIC [5] [µg/mL]	change of absorption on adding increasing amounts of BSA (BSA)	cytotoxicity at 24 h, 25 μg/mL ([1]; FL) [%]	cytotoxicity at 24 h, 50 μg/mL ([1]; FL) [%]	cytotoxicity at 24 h, 75 μg/mL ([1]; FL) [%]	cytotoxicity at 24 h, 100 μg/mL ([1]; FL) [%]	cytotoxicity at 24 h, 100 μg/mL [1, 8] [%]	cytotoxicity at 24 h, 25 μg/mL [2] [%]	cytotoxicity at 24 h, 50 μg/mL [2] [%]	cytotoxicity at 24 h, 75 μg/mL [2] [%]	cytotoxicity at 24 h, 100 μg/mL [2] [%]	cytotoxicity at 24 h, 25 μg/mL [6] [%]	cytotoxicity at 24 h, 50 μg/mL [6] [%]	cytotoxicity at 24 h, 75 μg/mL [6] [%]	cytotoxicity at 24 h, 100 μg/mL [6] [%]	cytotoxicity at 24 h, 25 μg/mL [7] [%]	also measured
Cc1cccc(-c2cc(-c3ccccn3)nc(N[C@@H]3O[C@H](CO)[C@@H](O)[C@H](O)[C@H]3O)n2)c1 [Compound 4, N-[4-(3-methylphenyl)-6-pyridin-2-ylpyrimidin-2-yl]-β-D-glucopyranosylamine]	250 (≈ 589 µM)	250 (≈ 589 µM)	> 1000	62.5 to 125 (≈ 147 to 294 µM)	250 (≈ 589 µM)	hyperchromic activity	24.4	32.4	48.3	69.5	40.2	19.6	28.9	42	64.8	26	33.2	61.7	72.5	11.6	MIC (S. mutans ATCC 35668): 125 µg/mL (≈ 294 µM); cytotoxicity at 24 h, 50 μg/mL [7]: 22.5%; cytotoxicity at 24 h, 75 μg/mL [7]: 30%
Cc1cccc(-c2cc(-c3ccncc3)nc(N[C@@H]3O[C@H](CO)[C@@H](O)[C@H](O)[C@H]3O)n2)c1 [Compound 6, N-[4-(3-methylphenyl)-6-pyridin-4-ylpyrimidin-2-yl]-β-D-glucopyranosylamine]	1000 (≈ 2360 µM)	62.5 to 125 (≈ 147 to 294 µM)	> 1000	500 (≈ 1180 µM)	500 (≈ 1180 µM)	hyperchromic activity	19.1	27.6	50.9	63.4	41.9	10	15.4	35.9	41.1	27	32	48.1	72.8	7.22	MIC [3]: 125 µg/mL (≈ 294 µM); cytotoxicity at 24 h, 50 μg/mL [7]: 12.5%; cytotoxicity at 24 h, 75 μg/mL [7]: 31.8%
Cc1cccc(-c2cc(-c3cccnc3)nc(N[C@@H]3O[C@H](CO)[C@@H](O)[C@H](O)[C@H]3O)n2)c1 [Compound 5, N-[4-(3-methylphenyl)-6-pyridin-3-ylpyrimidin-2-yl]-β-D-glucopyranosylamine]	> 1000	62.5 to 125 (≈ 147 to 294 µM)	> 1000	500 (≈ 1180 µM)	250 (≈ 589 µM)	–	16.6	32.9	62.6	76.8	36.4	14.1	25.5	42.8	52.5	24.4	31.3	51.5	66.3	8.23	MIC [3]: 125 µg/mL (≈ 294 µM); cytotoxicity at 24 h, 50 μg/mL [7]: 12.2%; cytotoxicity at 24 h, 75 μg/mL [7]: 24.9%
Cc1ccccc1-c1cc(-c2ccccn2)nc(N[C@@H]2O[C@H](CO)[C@@H](O)[C@H](O)[C@H]2O)n1 [Compound 1, N-[4-(2-methylphenyl)-6-pyridin-2-ylpyrimidin-2-yl]-β-D-glucopyranosylamine]	1000 (≈ 2360 µM)	500 (≈ 1180 µM)	> 1000	62.5 to 125 (≈ 147 to 294 µM)	500 (≈ 1180 µM)	–	–	–	–	–	–	–	–	–	–	–	–	–	–	–	binding constant (Kb) (calf thymus DNA (CT-DNA)): greater interest in DNA than the anticancer drugs cisplatin and 5FU; MIC (S. mutans ATCC 35668): 62.5 µg/mL (≈ 147 µM)

Now from value to molecule, other results behind:

MIC (E. faecalis ATCC 29212) [µg/mL]	MIC [3, 9] [µg/mL]	MIC [4] [µg/mL]	MIC (S. mutans ATCC 35668; [10]) [µg/mL]	MIC [5] [µg/mL]	change of absorption on adding increasing amounts of BSA (BSA)	SMILES	cytotoxicity at 24 h, 25 μg/mL ([1]; FL) [%]	cytotoxicity at 24 h, 50 μg/mL ([1]; FL) [%]	cytotoxicity at 24 h, 75 μg/mL ([1]; FL) [%]	cytotoxicity at 24 h, 100 μg/mL ([1]; FL) [%]	cytotoxicity at 24 h, 100 μg/mL [1, 8] [%]	cytotoxicity at 24 h, 25 μg/mL [2] [%]	cytotoxicity at 24 h, 50 μg/mL [2] [%]	cytotoxicity at 24 h, 75 μg/mL [2] [%]	cytotoxicity at 24 h, 100 μg/mL [2] [%]	cytotoxicity at 24 h, 25 μg/mL [6] [%]	cytotoxicity at 24 h, 50 μg/mL [6] [%]	cytotoxicity at 24 h, 75 μg/mL [6] [%]	cytotoxicity at 24 h, 100 μg/mL [6] [%]	cytotoxicity at 24 h, 25 μg/mL [7] [%]	also measured
–	1000 (≈ 1690 µM)	> 1000	62.5 to 125 (≈ 105 to 211 µM)	> 1000	hypochromically	CC(=O)OC[C@H]1O[C@@H](Nc2nc(-c3ccc(C)cc3)cc(-c3ccccn3)n2)[C@H](OC(C)=O)[C@@H](OC(C)=O)[C@@H]1OC(C)=O [Compound 16, 2,3,4,6-tetra-O-acetyl-N-[4-(4-methylphenyl)-6-pyridin-2-ylpyrimidin-2-yl]-β-D-glucopyranosylamine]	–	–	–	–	–	–	–	–	–	–	–	–	–	–	MIC (S. mutans ATCC 35668): 125 µg/mL (≈ 211 µM)
1000 (≈ 2360 µM)	62.5 to 125 (≈ 147 to 294 µM)	> 1000	250 (≈ 589 µM)	500 (≈ 1180 µM)	hyperchromic activity	Cc1ccc(-c2cc(-c3ccncc3)nc(N[C@@H]3O[C@H](CO)[C@@H](O)[C@H](O)[C@H]3O)n2)cc1 [Compound 9, N-[4-(4-methylphenyl)-6-pyridin-4-ylpyrimidin-2-yl]-β-D-glucopyranosylamine]	18.6	30	60.6	71	36.5	16.5	24.4	41.5	49.4	27.4	28.5	48.4	63.2	11.1	MIC [3]: 125 µg/mL (≈ 294 µM); cytotoxicity at 24 h, 50 μg/mL [7]: 19.2%; cytotoxicity at 24 h, 75 μg/mL [7]: 27.5%
